The IC50 is the midpoint of a concentration-inhibition curve. Read a high IC50 as a need for much substance.

Data on nine compounds can be found in US5795876A, “Method of inhibiting vascular cell adhesion molecule-1 and treating chronic inflammatory diseases with 2, 6-di-alkyl-4-silyl-phenols” (Hoechst Marion Rousssel, Inc., priority 1997, dated 1998).

For series [1], the system named is VCAM-1. The settings on record: vascular endothelial cells; cited from earlier work.
The subject of series [2] is ICAM-1. The settings on record: vascular endothelial cells; cited from earlier work.
For series [3], the system named is VCAM-1. The series is described as follows: Cell surface ELISA for VCAM-1 in human umbilical vein endothelial cells (HUVEC), cytokine-induced (tumor necrosis factor-alpha). Type of series: cell-based. The settings on record: for inhibition at 50 µM: read-out: VCAM-1 (% inh. 50 μM); for IC50: eight serial dilutions, basal expression subtracted. The method, then: (§1) Cell Surface ELISA for VCAM-1/ICAM-1
(§2) Proliferating human umbilical vein endothelial cells (HUVEC) or human aortic smooth muscle cells (HASMC) from Clonetics (San Diego, Calif.) were plated onto 96-well plates in 100 μL medium per well at 20,000 cells per cm^2. The cultures were maintained in growth medium (EGM or SMGM2, Clonetics, San Diego, Calif.) for two days prior to addition of cytokines or drugs. Cytokines plus or minus compounds were added for 20 to 24 hours prior to analysis for adhesion molecule levels. Tumor necrosis factor (Genzyme, Cambridge, Mass.) was added to cultures at 500-1000 units/mL. Interleukin-4 (GIBCO-BRL, Gaithersburg, Md.) was added to cultures at 100-200 pg/mL. (Additions were made by transferring 100 μL of cytokines plus compounds serially diluted on a separate 96-well plate into the plates containing cells. The medium on the cultures was not exchanged prior to addition of effectors). The culture medium was removed, and the monolayers were washed twice with Hanks buffered saline solution (HBSS) at room temperature. The primary antibody (anti-human VCAM-1 from Upstate Biotechnology, Inc., Lake Placid, N.Y. or anti-human ICAM-1 from Immunotech, Inc., Westbrook, Me.) was added to each well (1 μg/mL in HBSS plus 5% newborn calf serum, GIBCO-BRL, Gaithersburg, Md.) and incubated at 37° C. for 1 hr. The wells were washed twice with HBSS, then 100 μL of a 1/1000 dilution of goat anti-mouse IgG conjugated to horse radish peroxidase (BioRad, Hercules, Calif.) in HBSS plus 5% newborn calf serum was added to each well and incubated for 1 hr at 37° C. The wells were washed three times with HBSS, then 100 μL of TMB substrate (BioRad, Hercules, Calif.) was added to each well. The reaction was stopped after blue color developed by addition of 50 μL of 1N H2 SO4. Absorbance is measured at 450 nm with a plate reader. IC50 values were determined from curves of absorbance values obtained from serial dilutions of compounds (dissolved in dimethyl sulfoxide).
(§3) The IC50 value is defined as the drug concentration that inhibits the cytokine-induced adhesion molecule expression by 50%. Maximal values for adhesion molecule expression in cytokine-induced cultures was subtracted from the basal level of adhesion molecule expression (minus cytokines) in the cultures to determine the level of induction. […] Each drug concentration was tested in quadruplicate wells. Single point tests of compounds at 50 μM were assayed as described for IC50 determinations, except that the data represent the level of inhibition without correction for basal expression. (Basal adhesion molecule expression was 10-20% of the total induced expression).
(§4) In these experiments, the cells were coincubated with tumor necrosis factor-alpha along with the indicated compounds about 20 to 24 hr before assaying cell surface adhesion molecule expression.
(§5) Table 3 illustrates the activity of selected compounds when eight serial dilutions of drug were tested against cytokine induction of VCAM-1 expression in both vascular endothelial and smooth muscle cells. Subtraction of basal VCAM-1 expression was also used in the calculation of IC50 values. Each compound was also tested in a similar manner for ICAM-1 inhibition. No inhibition of ICAM-1 was detected (up to 100 μM) in vascular smooth muscle cells.
For orientation: ELISA stands for enzyme-linked immunosorbent assay.

For series [4], the system named is ICAM-1. Put plainly: Cell surface ELISA for ICAM-1 in human umbilical vein endothelial cells (HUVEC), cytokine-induced (tumor necrosis factor-alpha). Format: cell-based. The settings on record: for inhibition at 50 µM: Homo sapiens, HUVEC, read-out: ICAM-1 (% inh. 50 μM). The method, then:
as §1, §2, §3, §4, §5

Series [5] has as its system VCAM-1. Put plainly: Cell surface ELISA for VCAM-1 in human aortic smooth muscle cells (HASMC), cytokine-induced (interleukin-4). Format: cell-based. The settings on record: for inhibition at 50 µM: HASMC; for IC50: HSMC, eight serial dilutions, basal expression subtracted. The method, then:
as §1, §2, §3
Table 1 summarizes the ability of various compounds of this invention to inhibit VCAM-1 using human aortic smooth muscle cells (HASMC). In these experiments, the cells were coincubated with interleukin-4 and the compounds listed about 20 hr before assaying cell surface VCAM-1 levels. Each column represents a separate experiment.
as §5

The subject of series [6] is human umbilical vein endothelial cells (HUVEC). Put plainly: Loss of HUVEC adherence to the tissue culture surface (microscope). Type of series: cell-based. The settings on record: vascular endothelial cells; 50 and 100 μM; observed with a microscope.
The subject of series [7] is VCAM-1. Put plainly: In vivo inhibition of LPS-induced VCAM-1 upregulation in rabbit aorta (immunohistochemistry). Further details: species or system New Zealand white rabbits. The settings on record: 0.4% in diet for three weeks; LPS 40 μg/animal i.v.; aorta 4 hr after LPS; when adequately accumulated. The text has this: FIG. 1 illustrates the effect of 2,6-di-t-butyl-4-[(dimethylphenylsilyl)methylthio]phenol (MDL 29,353) on LPS induced VCAM-1 expression in rabbit aorta in vivo. Data are expressed as the percent of the aortic surface endothelium expressing VCAM-1 as measured by immunostaining with an anti-rabbit VCAM-1 antibody.
In Vivo Inhibition of VCAM-1 Upregulation by MDL 29,353 in Rabbit Aorta
New Zealand white rabbits were fed a diet of chow plus or minus 0.4% MDL 29,353 for three weeks prior to challenge with lipopolysaccharide (LPS, 40 μg/animal, i.v. ear vein). The aorta was removed from each animal 4 hr after LPS injection and rinsed briefly in phosphate buffered saline. VCAM-1 was immunohistochemistry was performed by incubating the tissues with RB1/9 antibody (mouse anti-rabbit VCAM-1) at 4° C. overnight. The bound RB1/9 was detected using a biotinylated goat anti-mouse secondary antibody (60 min, RT). VCAM-1 staining was accomplished by addition of streptavidin-alkaline phosphatase conjugate (30 min, RT) followed by an incubation with BT Red (Biotec, 10, RT). Images of the stained tissues were captured using an image analysis system for determination of the percentages of the aortic endothelium showing immunoreactivity with anti-VCAM antibody.

Where [8] appears, read: 20 h, read-out: HSMC-1 (% inh. 50 μM) VCAM-1.
The mark [9] stands for this setting: 20 h, read-out: HSMC-2 (% inh. 50 μM) VCAM-1.
Where [10] appears, read: 20 h, read-out: HSMC-3 (% inh. 50 μM) VCAM-1.
Setting [11] is: 50 μM, TNF-alpha, 20 to 24 hr, average of three runs.
Where [12] appears, read: 50 μM, TNF-alpha, 20 to 24 hr, average of two runs.
Setting [13] is: HSMC-1 experiment, 50 μM, interleukin-4, about 20 hr, no correction for basal expression, read-out: HSMC-1 (% inh. 50 μM) VCAM-1.
The mark [14] stands for this setting: HSMC-2 experiment, 50 μM, interleukin-4, about 20 hr, no correction for basal expression, read-out: HSMC-2 (% inh. 50 μM) VCAM-1.
The mark [15] stands for this setting: HSMC-3 experiment, 50 μM, interleukin-4, about 20 hr, no correction for basal expression, read-out: HSMC-3 (% inh. 50 μM) VCAM-1.
Setting [16] is: average of HSMC-1, HSMC-2, HSMC-3, 50 μM, read-out: VCAM-1 (Avg.) % inh.

Like-named read-outs stand apart in the source and are kept apart here.

For `S=C(S)N1CCCC1` [pyrollidine dithiocarbamate], in series [1], the “Inhibition of cytokine-induced expression of VCAM-1” value was “inhibit cytokine-induced expression of VCAM-1”. In series [2], the “Inhibition of cytokine-induced expression of ICAM-1” value is “not ICAM-1”.
Regarding `CC(C)(C)c1cc(OC[Si](C)(C)c2ccc(Cl)cc2)cc(C(C)(C)C)c1O` [MDL 104,280, 2,6-Di-t-butyl-4-[(4-chlorophenyldimethylsilyl)methyloxy]phenol], the inhibition at 50 µM in series [3] is 27.3%; in series [4] it was 22%; in series [5] (setting [8]), 54.7%; in series [5] (setting [9]), 63%; in series [5] (setting [10]), 44%; in series [5] (read-out: VCAM-1 (Avg.) % inh.), 53.9%.
As to `CC(=O)N[C@@H](CS)C(=O)O` [N-acetylcysteine], the “Inhibition of cytokine-induced expression of VCAM-1” value in series [1] is “inhibit cytokine-induced expression of VCAM-1”. Also, the “Inhibition of cytokine-induced expression of ICAM-1” value in series [2] is given as “not ICAM-1”.
For `CC(C)(C)c1cc(SC[Si](C)(C)C)cc(C(C)(C)C)c1O` [MDL 28,235, 2,6-Di-t-butyl-4-[(trimethylsilyl)methylthio]phenol], the inhibition at 50 µM in series [3] came out at 4.3%; in series [5] (setting [8]), 7.8%; in series [5] (setting [9]), 18%; in series [5] (setting [10]) it was 42%; in series [5] (read-out: VCAM-1 (Avg.) % inh.), 22.6%.
For the compound `Cc1cc(SC[Si](C)(C)c2ccccc2)cc(C(C)(C)C)c1O` [MDL 104,518, 2-t-butyl-6-methyl-4-[(dimethylphenylsilyl)methylthio]phenol], the inhibition at 50 µM in series [4] turned out to be 78%; in series [5] (setting [8]) it was 4.4%; in series [5] (setting [9]) it was 47%; in series [5] (setting [10]), 26%; in series [5] (read-out: VCAM-1 (Avg.) % inh.), 25.8%.
Take `Cc1cc(OC[Si](C)(C)c2ccccc2)cc(C)c1O` [MDL 103,719, 2,6-Dimethyl-4-[(dimethylphenylsilyl)methyloxy]phenol]: the inhibition at 50 µM was 17% in series [3]; 77% in series [4]; 49% in series [5] (setting [9]); 42% in series [5] (setting [10]); 45.5% in series [5] (read-out: VCAM-1 (Avg.) % inh.).
For `CC(C)(C)c1cc(OC[Si](C)(C)c2ccccc2)cc(C(C)(C)C)c1O` [MDL 103,902, 2,6-Di-t-butyl-4-[(dimethylphenylsilyl)methyloxy]phenol], the inhibition at 50 µM in series [3] (setting [11]) was found to be 25.3%; in series [4] (setting [12]) it was 39%; in series [5] (setting [13]) it was 49%; in series [5] (setting [14]), 60%; in series [5] (setting [15]), 43%; in series [5] (setting [16]), 50.7%. In addition, the IC50 turned out to be 11 µM in series [3] and 5 µM in series [5]. The “Cell adherence to the tissue culture surface” value in series [6] is on record as “loss of cell adherence”. In series [4] (50 and 100 μM, could be accounted for by loss of cell adherence), the “Inhibition of ICAM-1 expression in vascular endothelial cells” value was “significant inhibition of ICAM-1 expression”.
For the compound `CC(C)(C)c1cc(SC[Si](C)(C)c2ccccc2)cc(C(C)(C)C)c1O` [MDL 29,353, 2,6-Di-t-butyl-4-[(dimethylphenylsilyl)methylthio]phenol], the inhibition at 50 µM in series [3] (setting [11]) was determined as 8.7%; in series [4] (setting [12]), 6%; in series [5] (setting [13]) it was 58%; in series [5] (setting [14]), 60%; in series [5] (setting [15]) it was 46%; in series [5] (setting [16]), 54.7%. Also, the half-maximal inhibitory concentration (IC50) in series [3] is 19 µM; in series [5], 10 µM. In series [7], the “Inhibition of LPS induced VCAM-1 expression in rabbit aortic endothelium (FIG. 1)” value is on record as “can inhibit the LPS induced level of VCAM-1 expression in rabbit aortic endothelium”.
`COc1ccc([Si](C)(C)COc2cc(C(C)(C)C)c(O)c(C(C)(C)C)c2)cc1` [MDL 105,074, 2,6-Di-t-butyl-4-[(dimethyl-4-methoxyphenylsilyl)methyloxy]phenol]: the inhibition at 50 µM in series [3] (setting [11]) came out at 20%; in series [5] (setting [13]), 28.3%; in series [5] (setting [14]), 52%; in series [5] (setting [15]), 47%; in series [5] (setting [16]) it was 42.4%. Also, the results for the half-maximal inhibitory concentration (IC50) in series [3] and in series [5] were 12 µM and 40 µM, respectively.
